Data set [1] concerns the target T1, Oxysterols receptor LXR-beta (Homo sapiens, UniProt P55055).
T1 sequence (P55055 whole entry): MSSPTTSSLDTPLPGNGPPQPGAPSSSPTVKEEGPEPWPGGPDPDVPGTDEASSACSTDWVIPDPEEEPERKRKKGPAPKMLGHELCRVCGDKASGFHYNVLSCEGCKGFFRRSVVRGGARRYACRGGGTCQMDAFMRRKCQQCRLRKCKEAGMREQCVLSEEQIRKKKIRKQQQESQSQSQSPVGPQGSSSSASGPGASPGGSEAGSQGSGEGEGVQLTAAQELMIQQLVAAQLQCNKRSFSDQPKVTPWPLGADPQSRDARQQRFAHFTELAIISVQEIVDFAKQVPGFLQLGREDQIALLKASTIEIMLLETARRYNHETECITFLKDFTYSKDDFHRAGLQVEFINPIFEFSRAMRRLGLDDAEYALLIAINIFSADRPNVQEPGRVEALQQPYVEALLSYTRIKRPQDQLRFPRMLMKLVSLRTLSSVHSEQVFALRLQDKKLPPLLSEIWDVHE
Kind of data set: Agonist activity at Gal4-tagged LXRbeta (unknown origin) expressed in CHOK1 cells after 24 hrs by luciferase reporter gene assay. The format is cell-based, CHO-K1. In general terms: Reporter assays use an easily measured gene product as a stand-in for the process of interest.

For data set [2], the target named is T2, Oxysterols receptor LXR-alpha (Homo sapiens, UniProt Q13133).
T2 sequence (Q13133 whole entry): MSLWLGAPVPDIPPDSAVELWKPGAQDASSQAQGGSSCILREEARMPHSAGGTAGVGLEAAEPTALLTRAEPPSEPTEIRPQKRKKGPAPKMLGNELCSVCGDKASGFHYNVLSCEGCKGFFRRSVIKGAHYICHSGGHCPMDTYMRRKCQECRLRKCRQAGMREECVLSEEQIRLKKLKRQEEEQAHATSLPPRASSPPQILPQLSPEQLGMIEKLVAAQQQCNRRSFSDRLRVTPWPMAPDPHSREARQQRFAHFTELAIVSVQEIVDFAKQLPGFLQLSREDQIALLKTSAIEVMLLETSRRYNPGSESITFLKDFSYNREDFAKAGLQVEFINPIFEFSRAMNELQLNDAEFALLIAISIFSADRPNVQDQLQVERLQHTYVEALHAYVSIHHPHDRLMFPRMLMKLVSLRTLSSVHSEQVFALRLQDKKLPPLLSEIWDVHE
Kind of data set: Agonist activity at Gal4-tagged LXRalpha (unknown origin) expressed in CHOK1 cells after 24 hrs by luciferase reporter gene assay. The format is cell-based, CHO-K1.

In the next data set the test system is Syrian golden hamster. The data set can be described thus: Plasma concentration in Golden Syrian hamster at 100 mg/kg, po. The format is ADME, organism-based, Mesocricetus auratus. More on the design: dose 100 mg/kg, route oral. Conditions: in vivo; call rule not given here.
Data set [3] has as its system Hamster. Kind of data set: Effect on total cholesterol level in high-fat-and-cholesterol diet fed Male Bio F1B hamster plasma at 300 mg/kg, po relative to control. It counts as functional, Cricetinae.
The nature of data set [4]: Plasma concentration in Golden Syrian hamster at 300 mg/kg, po after 1 hr. It counts as ADME, organism-based, Mesocricetus auratus. More on the design: dose 300 mg/kg, route oral.
Data set [5] has as its system Hamster. Kind of data set: Effect on HDL-C level in high-fat-and-cholesterol diet fed Male Bio F1B hamster plasma at 30 mg/kg, po relative to control. The format is functional, Cricetinae.
Data set [6] concerns Hamster. Kind of data set: Effect on area of lipid accumulation in high-fat-and-cholesterol diet fed Male Bio F1B hamster aortic arch at 300 mg/kg, po relative to control. It counts as functional, Cricetinae, Pharyngeal arch artery.
Data set [7] deals with Hamster. Kind of data set: Effect on area of lipid accumulation in high-fat-and-cholesterol diet fed Male Bio F1B hamster aortic arch at 100 mg/kg, po relative to control. It counts as functional, Cricetinae, Pharyngeal arch artery.
Data set [8] in a line: Plasma concentration in Golden Syrian hamster at 300 mg/kg, po after 0.5 hrs. It counts as ADME, organism-based, Mesocricetus auratus. Details: dose 300 mg/kg, route oral.
Data set [9] has as its system Hamster. Kind of data set: Effect on Plasma triglyceride level in high-fat-and-cholesterol diet fed Male Bio F1B hamster at 300 mg/kg, po relative to control. The format is organism-based. To be noted: cricetinae, in vivo. Details: dose 300 mg/kg, route oral.
The test system of data set [10] is Hamster. Kind of data set: Effect on HDL-C level in high-fat-and-cholesterol diet fed Male Bio F1B hamster plasma at 300 mg/kg, po relative to control. It counts as functional, Cricetinae.
Data set [11] concerns Hamster. Kind of data set: Effect on total cholesterol level in high-fat-and-cholesterol diet fed Male Bio F1B hamster plasma at 30 mg/kg, po relative to control. The format is functional, Cricetinae.
Data set [12] relates to Hamster. The data set can be described thus: Effect on Plasma triglyceride level in high-fat-and-cholesterol diet fed Male Bio F1B hamster at 100 mg/kg, po relative to control. Conditions: cricetinae, in vivo. It counts as organism-based. Details: dose 100 mg/kg, route oral.
The test system of data set [13] is Hamster. Kind of data set: Effect on Plasma triglyceride level in high-fat-and-cholesterol diet fed Male Bio F1B hamster at 30 mg/kg, po relative to control. It counts as organism-based. More on the design: dose 30 mg/kg, route oral. To be noted: cricetinae, in vivo.
Data set [14] deals with Hamster. Kind of data set: Effect on total cholesterol level in high-fat-and-cholesterol diet fed Male Bio F1B hamster plasma at 100 mg/kg, po relative to control. It counts as functional, Cricetinae.
Data set [15] has as its system Hamster. The data set can be described thus: Effect on area of lipid accumulation in high-fat-and-cholesterol diet fed Male Bio F1B hamster aortic arch at 30 mg/kg, po relative to control. It counts as functional, Cricetinae.
The test system of data set [16] is Hamster. Kind of data set: Effect on HDL-C level in high-fat-and-cholesterol diet fed Male Bio F1B hamster plasma at 100 mg/kg, po relative to control. The format is functional, Cricetinae.
Data set [17] is described as follows: Plasma concentration in Golden Syrian hamster at 300 mg/kg, po after 2 hrs. Details: dose 300 mg/kg, route oral. The format is ADME, organism-based, Mesocricetus auratus.
In data set [18] the test system is HepG2. The data set can be described thus: Induction of ABCA1 mRNA expression in human HepG2 cells at 5 uM relative to control. The format is functional.
The subject of data set [19] is HepG2. The data set can be described thus: Induction of SREBP-1c mRNA expression in human HepG2 cells at 5 uM relative to control. The format is functional.
The subject of data set [20] is HepG2. The data set can be described thus: Ratio of induction of ABCA1 mRNA expression to SREBP-1c mRNA expression in human HepG2 cells at 5 uM. It counts as functional.

Data on 17 compounds can be found in ChEMBL document CHEMBL3399967, “Design and discovery of 2-oxochromene derivatives as liver X receptor β-selective agonists” (Bioorg Med Chem Lett, 2015).

Broadly, the EC50 is the concentration giving half of the maximal effect.

Each structure is given as a SMILES string.

On to `CCCc1cc2c(C(F)(F)F)cc(=O)oc2c(CCC)c1OCCCCN1C(=O)NC(C)(c2ccc(OC)cc2)C1=O` (stereo unspecified), for which the EC50 is 960 nM in [1] (read-out: EC50) and “Not Active” in [2] (cho-k1).

`CCCc1cc2c(C(F)(F)F)cc(=O)oc2c(CCC)c1OCCCCN1C(=O)NC(C)(c2ccc(OC)c(OC)c2)C1=O` (stereo unspecified): the EC50 result in data set [1] (cho-k1) and in data set [2] (cho-k1) was “Not Active” in each case.

Consider `CCCc1cc2c(C(F)(F)F)cc(=O)oc2c(CCC)c1OCCCCN1C(=O)NC(C)(c2ccc3c(c2)OCO3)C1=O` (stereo unspecified), for which the EC50 in data set [1] (read-out: EC50) came to 1200 nM.

Consider `CCCc1cc2c(C(F)(F)F)cc(=O)oc2c(CCC)c1OCCCCN1C(=O)NC(C)(c2ccc(N(C)C)cc2)C1=O` (stereo unspecified), for which the EC50 result in data set [1] (cho-k1) and in data set [2] (cho-k1) was “Not Active” in each case.

`CCCc1cc2c(C(F)(F)F)cc(=O)oc2c(CCC)c1OCCCCN1C(=O)NC(C)(c2ccc(C(F)(F)F)cc2)C1=O` (stereo unspecified): in data set [2] (cho-k1), the EC50 result is listed as “Not Active”.

`CCCc1cc2c(C(F)(F)F)cc(=O)oc2c(CCC)c1OCCCCN1C(=O)NC(C)(c2ccc([N+](=O)[O-])cc2)C1=O` (stereo unspecified): the EC50 is 8000 nM in data set [1] (read-out: EC50) and “Not Active” in data set [2] (cho-k1).

`CCCc1cc2c(C(F)(F)F)cc(=O)oc2c(CCC)c1OCCCCN1C(=O)NC(C)(c2ccc(C(=O)O)cc2)C1=O` (stereo unspecified): the EC50 entry in data set [1] (cho-k1) and in [2] (cho-k1) was “Not Active” throughout.

On to `CCCc1cc2c(C(F)(F)F)cc(=O)oc2c(CCC)c1OCCCCN1C(=O)NC(C)(c2ccc(O)cc2)C1=O` (stereo unspecified), for which the concentration giving a half-maximal response (EC50) entry in data set [1] (cho-k1) and in [2] (cho-k1) was “Not Active” in each case.

With `CCCc1c(OCCCCN2C(=O)CN(C)C2=O)ccc2c(C(F)(F)F)cc(=O)oc12`, the EC50 in data set [1] (read-out: EC50) amounted to 1300 nM.

On to `CCCc1c(OCCCCN2C(=O)NC(C)(c3ccccc3)C2=O)ccc2c(C(F)(F)F)cc(=O)oc12` (stereo unspecified), for which the EC50 was 2000 nM in data set [1] (read-out: EC50) and “Not Active” in [2] (cho-k1).

Turning to `CCCc1c(OCCCCN2C(=O)NC(C)(c3ccc(OC)cc3)C2=O)ccc2c(C(F)(F)F)cc(=O)oc12` (stereo unspecified), the Cp entry in the data set on Syrian golden hamster is “Not Active”. Also, the Activity is on record as 98% with Hamster [3]; 96% with Hamster [5]; 56% in the data set on Hamster [6]; 102% in the data set with Hamster [7]; 96% in the data set with Hamster [9]; 113% in the data set on Hamster [10]. Also, the Activity stood at 115% with Hamster [11]; 131% in the data set with Hamster [12]; 136% with Hamster [13]; 101% with Hamster [14]; 119% with Hamster [15]; 96% in the data set with Hamster [16]. The same compound had a concentration at 1 h in [4] of 53 ng/mL. In data set [8], this compound returned a concentration at 0.5 h of 50 ng/mL. Moreover, in data set [17], the concentration at 2 h turned out to be 59 ng/mL.

Take `CCCc1c(OCCCCN2C(=O)NC(C)(c3ccc(OC)c(OC)c3)C2=O)ccc2c(C(F)(F)F)cc(=O)oc12` (stereo unspecified): the EC50 in [1] (read-out: EC50) was 3000 nM; in data set [2] (cho-k1), “Not Active”.

As to `CCCc1c(OCCCCN2C(=O)NC(C)(c3ccc4c(c3)OCO4)C2=O)ccc2c(C(F)(F)F)cc(=O)oc12` (stereo unspecified), in data set [1] (read-out: EC50), the 50% effective concentration (EC50) is 1100 nM.

In the case of `CCCc1c(OCCCCN2C(=O)NC(C)(c3ccc(C(=O)O)cc3)C2=O)ccc2c(C(F)(F)F)cc(=O)oc12` (stereo unspecified), the EC50 result in data set [1] (cho-k1) and in [2] (cho-k1) was “Not Active” each time.

For the compound `CCCc1c(OCCCCN2C(=O)NC(C)(c3ccc(O)cc3)C2=O)ccc2c(C(F)(F)F)cc(=O)oc12` (stereo unspecified), the EC50 entry in data set [2] (cho-k1) is recorded as “Not Active”.

In the case of `CCCc1c(OCCCN2C(=O)CSC2=O)ccc2c(C(F)(F)F)noc12`, the EC50 came out at 690 nM in data set [1] (read-out: EC50) and 1300 nM in data set [2] (read-out: EC50).

As for `O=C(O)Cc1cccc(OCCCN(Cc2cccc(C(F)(F)F)c2Cl)CC(c2ccccc2)c2ccccc2)c1`, the “fold change (FC)” value with HepG2 [18] was 15; in the data set on HepG2 [19] it was 4.9. In addition, the Ratio in the data set on HepG2 [20] is 3.1. Also, the EC50 in data set [1] (read-out: EC50) stood at 420 nM; in [2] (read-out: EC50), 1300 nM.
